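48-hour exposure; five concentrations; linearly interpolated endpoints. Abbreviation: GI50, concentration required for 50% inhibition of growth.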 The source made the active and inactive calls. Rule as the data show it: active = GI50 up to about 1.1 µM and inactive = higher.
Columns and labels:
Assay in all cases: inhibition of tumour cell growth, NCI panel, 48 h
COLO 205 = system: COLO 205
KM12 = system: KM12
EKVX = system: EKVX
UACC-62 = system: UACC-62
NCI-H460 = system: NCI-H460
ACHN = system: ACHN
NCI-H23 = system: NCI-H23
SNB-19 = system: SNB-19
SK-MEL-2 = system: SK-MEL-2
HOP-92 = system: HOP-92
MCF7 = system: MCF7
HCT-116 = system: HCT-116
MDA-MB-435 = system: MDA-MB-435
SK-OV-3 = system: SK-OV-3
LOX IMVI = system: LOX IMVI
M14 = system: M14
HCT-15 = system: HCT-15
Malme-3M = system: Malme-3M
OVCAR-8 = system: OVCAR-8
HL-60 = system: HL-60

Row | Compound | GI50 (COLO 205) | GI50 (KM12) | GI50 (EKVX) | GI50 (UACC-62) | GI50 (NCI-H460) | GI50 (ACHN) | GI50 (NCI-H23) | GI50 (SNB-19) | GI50 (SK-MEL-2) | GI50 (HOP-92) | GI50 (MCF7) | GI50 (HCT-116) | GI50 (MDA-MB-435) | GI50 (SK-OV-3) | GI50 (LOX IMVI) | GI50 (M14) | GI50 (HCT-15) | GI50 (Malme-3M) | GI50 (OVCAR-8) | GI50 (HL-60)
1 | COc1ccc2c(Cl)cc(NC(=S)Nc3ccccc3)nc2c1 | 31.2 µM (inactive) | 18.7 µM (inactive) | 22 µM (inactive) | 17.2 µM (inactive) | 32.3 µM (inactive) | 38.5 µM (inactive) | 23.4 µM (inactive) | 20.6 µM (inactive) | 22.4 µM (inactive) | 21.8 µM (inactive) | 25.8 µM (inactive) | 20.2 µM (inactive) | 17.7 µM (inactive) | 26 µM (inactive) | 21.1 µM (inactive) | 18.3 µM (inactive) | 27.9 µM | 15.2 µM (inactive) | 19.4 µM (inactive) | 
2 | O=C(O)Cc1cccnc1 | > 100 µM (inactive) | > 100 µM (inactive) | > 100 µM (inactive) | > 100 µM (inactive) | > 100 µM (inactive) | > 100 µM (inactive) | > 100 µM (inactive) | > 100 µM (inactive) | > 100 µM (inactive) | > 100 µM (inactive) | > 100 µM (inactive) | > 100 µM (inactive) | > 100 µM (inactive) | > 100 µM (inactive) | > 100 µM (inactive) | > 100 µM (inactive) | > 100 µM | > 100 µM (inactive) | > 100 µM (inactive) | 
3 | O=Cc1[nH]c(=O)[nH]c(=O)c1CCl | > 62.7 µM (inactive) | > 100 µM (inactive) | > 100 µM (inactive) | > 96.4 µM (inactive) | > 55.8 µM (inactive) | > 83 µM (inactive) | > 100 µM (inactive) | > 100 µM (inactive) | > 90.2 µM (inactive) | > 62.1 µM (inactive) | > 65.8 µM (inactive) | 50.5 µM (inactive) | > 100 µM (inactive) | > 100 µM (inactive) | 30 µM (inactive) |  | > 65.8 µM | > 100 µM (inactive) | > 82.4 µM (inactive) | 38 µM (inactive)
4 | O=C1/C(=N/O)Cc2c(Br)ccc(Br)c21 |  | 67.3 µM (inactive) | 28.2 µM (inactive) |  | 37.6 µM (inactive) | 40.7 µM (inactive) | 58.7 µM (inactive) |  | 17.9 µM (inactive) | > 100 µM (inactive) | 36.1 µM (inactive) | 55.1 µM (inactive) | 39.6 µM (inactive) | 37.2 µM (inactive) | 31.9 µM (inactive) | > 100 µM (inactive) | 33.7 µM |  | 42.7 µM (inactive) | 26.9 µM (inactive)
5 | O=[N+]([O-])c1cc([N+](=O)[O-])c(Nn2c3ccccc3c3ccccc32)c([N+](=O)[O-])c1 | 2.56 µM (inactive) | 0.622 µM (active) | 1.64 µM (inactive) | 0.933 µM (active) | 1.86 µM (inactive) | 1.2 µM (inactive) | 1.43 µM (inactive) | 3.04 µM (inactive) |  | 0.346 µM (active) | 1.25 µM (inactive) |  | 1.56 µM (inactive) |  |  | 2.17 µM (inactive) | 2.58 µM | 1.42 µM (inactive) | 2.55 µM (inactive) | 3.51 µM (inactive)
6 | CC(=O)c1ccc2c(c1)CC1(C2)Cc2ccc3c(c2C1=O)CCC3 (stereo not drawn) | 18.3 µM (inactive) | 28.2 µM (inactive) |  | 22.1 µM (inactive) | 29.3 µM (inactive) | 27.7 µM (inactive) | 31.2 µM (inactive) | 53.1 µM (inactive) | 17.1 µM (inactive) | 14.2 µM (inactive) | 22.5 µM (inactive) | 28.3 µM (inactive) | 17.9 µM (inactive) | 34.9 µM (inactive) | 24.5 µM (inactive) | 20 µM (inactive) | 25 µM | 18 µM (inactive) |  | 8.26 µM (inactive)
7 | c1ccc2c(c1)nc1n2sc2nc3ccccc3n21 | > 100 µM (inactive) | > 100 µM (inactive) | 54 µM (inactive) | 51.6 µM (inactive) | > 100 µM (inactive) |  | > 100 µM (inactive) |  | > 100 µM (inactive) | > 100 µM (inactive) | 35.6 µM (inactive) | > 100 µM (inactive) | > 100 µM (inactive) | > 100 µM (inactive) | > 100 µM (inactive) | > 100 µM (inactive) | > 100 µM |  | > 100 µM (inactive) | > 100 µM (inactive)
8 | COc1ccc2[nH]c3c(C)c4ncccc4c(C)c3c2c1 | 6.95 µM (inactive) | 1.93 µM (inactive) | 4.97 µM (inactive) | > 10 µM (inactive) | 2.12 µM (inactive) | 5.2 µM (inactive) | > 10 µM (inactive) | > 10 µM (inactive) | > 10 µM (inactive) | 8.34 µM (inactive) | 2.02 µM (inactive) | 3.4 µM (inactive) | 1.82 µM (inactive) | > 10 µM (inactive) |  | 1.64 µM (inactive) | 2.99 µM | 1.65 µM (inactive) | 3.73 µM (inactive) | 3.01 µM (inactive)

From ChEMBL document CHEMBL1201862, “PubChem BioAssay data set” (2004)
